pIC50: −log10 of the molar value.
How the values were obtained:
K-ras mRNA = settings: read-out: K-ras mRNA levels, half-maximal inhibitory concentration (IC50); Panc1 cells transfected; Real-Time PCR, HPRT and UBC endogenous controls
Procedure: Panc1 cells, human pancreatic carcinoma cells that carry the […] in the K-ras gene, were mock-transfected or transfected with siG12D or control scrambled siRNA (si-scr). The relative K-ras mRNA levels were assessed by Real-Time PCR, with Hypoxantine PhosphoRybosyl Transferase (HPRT) and Ubiquitin C (UBC) used as endogenous controls.

Zeb1, Slug, E-Cadherin = assay: Expression of genes characteristic of EMT; format: cell-based, human; settings: in vitro, normalized to the untreated cells
Excerpt: FIG. 9. Effect of the siG12DDDD on expression levels of metastasis-facilitating genes. Expression levels are normalized to the untreated cells.
Treatment of siG12D in vitro was followed by measurement of genes whose expression (high or low) is characteristic of EMT.

Panc-1 cells = assay: Scratch assay; format: cell-based, human; settings: after 24 hours, light microscopy
Procedure: FIG. 7. siG12D reduces EMT in Panc1 cells. A. Migration assay. Panc-1 cells were transfected with siG12D or non-targeting control (scrambled) or were treated with TGFβ (positive control). The migration ability was assessed using a modified Boyden chamber assay. The percentage of migrated cells relative to untreated cells is presented. B. Scratch assay. Panc-1 cells were mock-transfected or transfected in vitro with scrambled siRNA or siG12D, then were seeded in 6 W plates. After 24 hours, the cells were reseeded in 24 W plates to form a confluent culture. One day after reseeding, the cells were scratched with a plastic tip. […]
FIG. 8. Light microscopy images of migration of siG12D-DDD treated cells in a scratch assay, showing the inhibitory effect of siG12D on cellular migration.
In order to study the effects of siG12D on the EMT process and its consequent increased cellular migration and motility, we conducted a series of experiments in which we examined different aspects of this process. We analyzed the migration characteristics of Panc1 cells following transfection with siG12D or scrambled siRNA, using the scratch and transwell-migration assays. TGF-β was used as a positive control. […] To test migration through a scratch assay. […]

P-Akt = assay: Western blot of KRAS downstream effector P-Akt; format: cell-based, human; settings: 36 hrs after transfection, normalized to β-actin
Excerpt: (§1) FIG. 19. Treatment with anti-k-ras siRNA reduces levels of downstream effector proteins. Panc1 cells were left untreated (u/t) or transiently transfected with siG12D, non-targeting scrambled siRNA (si-scr) or mock transfected. A. Shown are representative blots of KRAS, P-Erk, P-Akt, and β-actin. B. Quantitation of protein expression, expressed as average±S.E.M. Numbers were normalized to the level of β-actin, then the resulting number was normalized to the expression in scrambled siRNA-transfected cells, which was set as 100%. Student's t-test was used to calculate(p) compared to mock-transfected cells.
(§2) To confirm the specific action of siG12D on the K-ras signaling pathway, KRAS, level of activation of the KRAS downstream effectors ERK and Akt was measured following treatment with siG12D. […] 36 hrs after transfection, cells were lysed and relative levels of KRAS, P-Erk and P-Akt proteins were assessed by Western blot analysis. […]
(§3) Western blot assays were carried by homogenizing cells in lysis buffer A (0.25M sucrose, 20 mM Tris pH 7.6, 1.5 mM MgCl2, 10% glycerol, 1 mM EDTA and “cOmplete mini” protein inhibitor cocktail (Roche Diagnostics)), incubated on ice for 10 min, centrifuged at 12,000 rpm for 15 min at 4° C., and supernatants were collected. […] Results are expressed as ratio of protein of interest/β-actin to correct for amount of protein loaded in each sample.

normal mice = assay: Toxicity study of LODER-driven siRNA in normal mice; format: in vivo; settings: intraperitoneally injected
Procedure: (§4) To study the toxic potential of the LODER-driven siRNA, we compared the effect of the siG12D LODER (16, 32 and 64 μg siG12D/kg weight) to that of the empty LODER and to sham-operated or untreated animals. LODERs were implanted into the pancreas of normal mice and rats, both males and females of both species. In parallel, the same and higher doses of siG12D were intraperitoneally injected into normal mice and rats (16, 160 and 320 μg siG12D/kg weight). The duration of this study was 2 weeks in mice and 8 weeks in rats. […] Based on the lack of adverse reaction following siRNA treatment, the maximum dose of 0.32 mg siRNA/kg body weight was considered as not constituting an acute toxicity risk.

normal rats = assay: Toxicity study of LODER-driven siRNA in normal rats; format: in vivo; settings: intraperitoneally injected
Procedure: as §4

PancO2 cell = PancO2 cell growth in vitro; format: cell-based, mouse
P-Erk = assay: Western blot of KRAS downstream effector P-Erk; format: cell-based, human; settings: 36 hrs after transfection, normalized to β-actin
Excerpt: as §1, §2, §3

Panc1 cells [1] = format: cell-based, human
Procedure: FIG. 18. Chart showing viability of Panc1 cells. Vertical axis: viability as a percentage of the viability of mock-transfected cells, 72 hours following transfection with the indicated siRNA. Dotted line indicates 50% reduction in viability. For all the differences, p<0.05 relative to the mock-transfected cells.
The effect of siRNA-mediated down-regulation of EMT-related genes on viability of Panc1 cancer cells was measured as follows: siRNAs targeting the indicated genes, namely SLUG (SNAI2), SNAI1 TWIST, Zeb1, Zeb2, Goosecoid, and E12 (TCF3), were designed and synthetized by IDT-Syntezza, using 2 different siRNA's per target (Table 3). Panc1 cells were transfected with the siRNAs using Lipofectamine®. 72 hrs post-transfection, cell viability was tested by Methylene blue (MB) assay. Gemzar® was used as a positive control for cell killing.

Panc1 cells [2] = assay: Migration assay (modified Boyden chamber); format: cell-based, human; settings: transfected cells, relative to untreated cells
Akt = assay: Orthotopic Panc1-LUC tumors, Akt immunohistochemistry; format: in vivo, human; settings: 39 days post-treatment, IH
Procedure: For this purpose, Panc1-LUC or Capan1-LUC cells were injected into the tail of the mouse pancreas via an incision. Tumor development was assessed by in vivo Luciferase activity. […] Two LODERs were stitched to the pancreatic tumor via a laparotomy.
Here, tumor tissues were tested from mice bearing pancreatic Panc1-LUC-derived tumors from 4 treatment groups: untreated, injected with siG12D or implanted with empty LODERs or siG12D LODERs. Thirty nine days post-treatment, we performed IH analysis of tumor tissues for Akt and ERK.

Panc1 cells [3] = assay: Cell viability by Methylene Blue test, siRNA alone and with Gemzar; format: cell-based, human; settings: 72 h; 1 hr of treatment with 10 μM Gemzar after transfection
Procedure: FIG. 15. Gemzar® enhances siG12D-DDD effect. Panc1 cells were transfected using Lipofectamine™ with unmodified and modified siG12D and a scrambled (non-targeting) siRNA control molecule or were mock transfected (no siRNA). Cell viability was assessed 72 hrs post-transfection by the Methylene Blue (MB) test. Additional groups were transfected as described above, followed by 1 hr of treatment with 10 μM Gemzar®. The numbers 1-4 in the last column relate to the percent of inhibition of cellular growth, wherein the inhibition seen with the unmodified siRNA was assigned the value of 100%. 4, 3, 2, and 1 refer respectively to 75-100%, 50-75%, 25-50%, and 0-25% of the inhibition seen with the unmodified siRNA.
Experimental procedure: Panc1 cells were transfected using Lipofectamine™ with unmodified and modified siG12D and a scrambled (non-targeting) siRNA control molecule or were mock transfected (no siRNA). Cell viability was assessed 72 hrs post-transfection by the Methylene Blue (MB) test. Additional groups were transfected as described above, followed by 1 hr of treatment with 10 μM Gemzar®. At the exemplary time point of 72 h, Gemzar® enhanced the effect of siG12D by nearly 10% (FIG. 15). […] Other time points, for example 48h, 72 h, 96 h and 120 h, may be utilized in additional studies.

Compound: siG12D: siRNA against K-ras G12D; sense GUUGGAGCUGAUGGCGUAGdTdT, antisense CUACGCCAUCAGCUCCAACdTdT (SEQ ID No: 41-42) (sense GUUGGAGCUGAUGGCGUAGTT; antisense CUACGCCAUCAGCUCCAACTT; DNA at 20, 21, other sugars and backbone not given here)
- pIC50 (K-ras mRNA): 10.17
- expression of epithelial genes (E-Cadherin) (Zeb1, Slug, E-Cadherin): augmented expression
- expression of mesenchymal genes (Zeb1 and Slug) (Zeb1, Slug, E-Cadherin): reduced expression
- migration in scratch assay (Panc-1 cells): barely migrated
- level of P-Akt (P-Akt): decreased
- maximum dose considered as not constituting an acute toxicity risk (normal mice): 0.32 mg siRNA/kg body weight
- maximum dose considered as not constituting an acute toxicity risk (normal rats): 0.32 mg siRNA/kg body weight
- PancO2 cell growth (PancO2 cell): inhibited PancO2 cell growth to a similar extent as Panc1 cells
- level of P-Erk (P-Erk): decreased
- reduction in viability (Panc1 cells [1]): ~50%
- inhibition of Panc1 migration (Panc1 cells [2]): more than 30%
- Akt phosphorylation (Akt): induced

Compound: Goosecoid-1: siRNA targeting Goosecoid; sense agcauguucagcaucgacadTdT, antisense ugucgaugcugaacaugcudTdT; SEQ ID No's 127-128 (sense AGCAUGUUCAGCAUCGACATT; antisense UGUCGAUGCUGAACAUGCUTT; DNA at 20, 21, other sugars and backbone not given here)
- reduction in viability (Panc1 cells [1]): ~50%

Compound: Zeb1-2: siRNA targeting Zeb1; sense cagguguaagcgcagaaagdTdT, antisense cuuucugcgcuuacaccugdTdT; SEQ ID No's 112-113 (sense CAGGUGUAAGCGCAGAAAGTT; antisense CUUUCUGCGCUUACACCUGTT; DNA at 20, 21, other sugars and backbone not given here)
- reduction in viability (Panc1 cells [1]): ~50%

Compound: SNAI2-2: siRNA targeting SLUG (SNAI2); sense cuggucaagaagcauuucadTdT, antisense ugaaaugcuucuugaccagdTdT; SEQ ID No's 104-105 (sense CUGGUCAAGAAGCAUUUCATT; antisense UGAAAUGCUUCUUGACCAGTT; DNA at 20, 21, other sugars and backbone not given here)
- reduction in viability (Panc1 cells [1]): ~50%

Compound: Nc1ccn([C@@H]2O[C@H](CO)[C@@H](O)C2(F)F)c(=O)n1 [Gemzar®, 2′,2′-difluorodeoxycytidine]
- enhancement of the effect of siG12D on cell viability (Panc1 cells [3]): ~10%

Compound: TCF3-1: siRNA targeting E12 (TCF3); sense cuccuggacuucagcaugadTdT, antisense ucaugcugaaguccaggagdTdT; SEQ ID No's 131-132 (sense CUCCUGGACUUCAGCAUGATT; antisense UCAUGCUGAAGUCCAGGAGTT; DNA at 20, 21, other sugars and backbone not given here)
- reduction in viability (Panc1 cells [1]): greater than 50%

Compound: SNAI1-2: siRNA targeting SNAI1; sense augcacauccgaagccacadTdT, antisense uguggcuucggaugugcaudTdT; SEQ ID No's 124-125
- reduction in viability (Panc1 cells [1]): greater than 50%

Compound: TWIST-2: siRNA targeting TWIST; sense ggugugcguccagccguugdTdT, antisense caacggcuggacgcacaccdTdT; SEQ ID No's 108-109 (sense GGUGUGCGUCCAGCCGUUGTT; antisense CAACGGCUGGACGCACACCTT; DNA at 20, 21, other sugars and backbone not given here)
- reduction in viability (Panc1 cells [1]): greater than 50%

From US20140314854A1, “METHODS AND COMPOSITIONS FOR RNAi-BASED CANCER TREATMENT” (Silenseed Ltd., priority 2013, published 2014)
